Tested on: SARS-CoV-2 variants of concern (Alpha, Beta, Gamma, Delta)
Assay type: cell-based

O=C(O)c1ccccn1 [PA, pyridine-2-carboxylic acid]
viral load abrogated by: ~1 log
